Broadly, the IC50 is the concentration that inhibits the measured activity by half. A low value points to higher potency.

This is an account of results in patent publication US12331056B2, “SHP2 phosphatase inhibitors and methods of use thereof” (Relay Therapeutics, Inc., priority 2018, dated 2025).

Counter-ions that a name gives are not always drawn.

For the test, the target named is T1, SHP2 (Homo sapiens, UniProt Q06124).
T1 sequence (Q06124 1-593): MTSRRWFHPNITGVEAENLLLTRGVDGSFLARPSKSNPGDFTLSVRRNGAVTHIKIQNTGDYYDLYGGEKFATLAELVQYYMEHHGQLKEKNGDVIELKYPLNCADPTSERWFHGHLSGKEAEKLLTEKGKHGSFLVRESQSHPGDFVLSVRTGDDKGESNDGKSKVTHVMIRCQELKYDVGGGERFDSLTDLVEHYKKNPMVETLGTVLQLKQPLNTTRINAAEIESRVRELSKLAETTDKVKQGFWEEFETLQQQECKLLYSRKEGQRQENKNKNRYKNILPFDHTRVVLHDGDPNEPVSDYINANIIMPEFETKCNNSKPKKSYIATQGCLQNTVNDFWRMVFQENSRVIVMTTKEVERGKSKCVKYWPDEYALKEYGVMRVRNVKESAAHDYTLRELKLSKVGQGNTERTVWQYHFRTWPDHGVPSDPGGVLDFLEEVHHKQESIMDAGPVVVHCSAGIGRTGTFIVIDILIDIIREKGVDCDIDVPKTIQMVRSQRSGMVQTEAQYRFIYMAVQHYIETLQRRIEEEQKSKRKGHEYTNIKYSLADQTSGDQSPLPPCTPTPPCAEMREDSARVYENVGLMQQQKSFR
Put plainly: SHP2 allosteric inhibition assay (DiFMUP prompt fluorescence). The following applies: 0.25 nM SHP2 activated with 0.5 μM peptide IRS1_pY1172(dPEG8)pY1222; substrate DiFMUP 100 μM. Type of test: biochemical.

`Nc1nccc(Sc2cnc(N3[C@@H]4CC[C@H]3C[C@]3(C4)Oc4ccccc4[C@H]3N)cn2)c1Cl` [Example 232]: the IC50 was below 50 nM. In turn, `NC1c2ccccc2CC12CCC(c1cnc(SCC3CC3)cn1)CC2` (single isomer, unassigned) [Example 284, (1s, 1′R, 4S)-4-(5-((cyclopropylmethyl)thio)pyrazin-2-yl)-1′,3′-dihydrospiro[cyclohexane-1,2′-inden]-1′-amine] yielded an IC50 of 50 to 1000 nM.

Molecule `N[C@@H]1c2ccccc2C[C@]12CC[C@@H](c1cnc3c(N4CCCc5ncccc54)n[nH]c3n1)CC2` (single isomer, unassigned) [Example 191, (1r, 3′S, 4S)-4-[3-(1,2,3,4-tetrahydro-1,5-naphthyridin-1-yl)-1H-pyrazolo[3,4-b]pyrazin-6-yl]-1′,3′-dihydrospiro[cyclohexane-1,2′-inden]-3′-amine] gave an IC50 of 1000 to 10000 nM. The same measure for `N[C@@H]1c2ccccc2C[C@]12CC[C@H](c1cnc(Sc3ccnc(Cl)c3Cl)cn1)CC2` (single isomer, unassigned) [Example 275, (1s, 3′S, 4R)-4-{5-[(2,3-dichloropyridin-4-yl)sulfanyl]pyrazin-2-yl}-1′,3′-dihydrospiro[cyclohexane-1,2′-inden]-3′-amine]: 1000 to 10000 nM; for `Cn1cnc2c(N3CCC4(CC3)Cc3ccccc3[C@H]4N)nccc21` [Example 184]: 50 to 1000 nM. Molecule `C[C@H](C(=O)N1CCC2(CC1)Cc1ccccc1[C@H]2N)c1ccc(F)cc1` (single isomer, unassigned) [Example 290] registered an IC50 below 50 nM. The same measure for `Cc1cnc2sc(N3CCC4(CC3)Cc3ccccc3[C@H]4N)nn12` [Example 293, (S)-1′-(5-methylimidazo[2,1-b][1,3,4]thiadiazol-2-yl)-1,3-dihydrospiro[indene-2,4′-piperidin]-1-amine]: below 50 nM. As for `N[C@H]1c2ccccc2CC12CCN(c1cnc3c(-c4ccnc(Cl)c4F)n[nH]c3n1)CC2` (single isomer, unassigned) [Example 66], the figure is 50 to 1000 nM.

The molecule `N#Cc1cccc2c1CC1(CCN(c3cnc4c(N5CCCc6ncccc65)n[nH]c4n3)CC1)[C@H]2N` (single isomer, unassigned) [Example 116] showed an IC50 of 1000 to 10000 nM. In turn, `N[C@@H]1c2ccccc2CC12CCN(c1ccc(SCC3CC3)nc1)CC2` [Example 272, (S)-1′-(6-((cyclopropylmethyl)thio)pyridin-3-yl)-1,3-dihydrospiro[indene-2,4′-piperidin]-1-amine formate] came in with an IC50 below 50 nM. For `Cc1nc(N2CCC3(CC2)Cc2ccccc2[C@@H]3N)c(CO)nc1-c1cccc(Cl)c1Cl` (single isomer, unassigned) [Example 19], the IC50 fell in the range of 50 to 1000 nM.

The molecule `Nc1nccc(Sc2ncc(N3CCC4(CC3)Cc3ccccc3[C@H]4N)cn2)c1Cl` [Example 63] registered an IC50 of 50 to 1000 nM. As for `N[C@@H]1c2ccccc2C[C@@]12C[C@H]1CC[C@@H](C2)N1c1cnc2c(N3CCCc4ncccc43)n[nH]c2n1` [Example 227], the figure is above 10000 nM. Regarding `CC(C)Sc1cnc(N2CCC3(CC2)Cc2ccccc2[C@H]3N)cn1` [Example 248, (3S)-1′-[5-(propan-2-ylsulfanyl)pyrazin-2-yl]-1,3-dihydrospiro[indene-2,4′-piperidin]-3-amine], the IC50 is below 50 nM. On to `C[C@H](O)c1nc(Sc2ccnc(Cl)c2Cl)cnc1N1CCC2(CC1)Cc1ccccc1[C@H]2N` (single isomer, unassigned) [Example 260], for which the IC50 is above 10000 nM. The molecule `Nc1nccc(Sc2cnc(N3[C@@H]4CC[C@H]3C[C@]3(Cc5ccccc5[C@H]3N)C4)cn2)c1Cl` [Example 231] registered an IC50 above 10000 nM.
